The record followed here is ChEMBL document CHEMBL4138206, “Acovenoside A Induces Mitotic Catastrophe Followed by Apoptosis in Non-Small-Cell Lung Cancer Cells” (J Nat Prod, 2017).

Molecules are shown by their SMILES. Active and inactive are the calls of the source. No cut-off for these calls is given here.

Data set [1] concerns A549. The data set can be described thus: Induction of mitochondrial dysfunction in human A549 cells assessed as cell population with mitochondrial potential loss at 100 nM after 48 hrs by JC-1 staining based flow cytometry (reference value: 7%). Format: functional. (Flow cytometry measures light scatter and fluorescence of single cells or particles in a stream.)
The subject of data set [2] is A549. The data set can be described thus: Induction of mitochondrial dysfunction in human A549 cells assessed as cell population with intact mitochondrial potential at 100 nM after 48 hrs by JC-1 staining based flow cytometry (reference value: 7%). The format is functional.
Data set [3] has as its target T1, Cyclin-dependent kinase 1/cyclin B1 (Homo sapiens) (UniProt P06493+P14635). The data set can be described thus: Activation of CDK1/cyclinB1 in human A549 cells at 50 to 100 nM after 12 hrs by western blot analysis. The format is cell-based.
In data set [4] the test system is A549. As to the kind of experiment: Cytotoxicity against human A549 cells assessed as reduction in cell viability after 24 hrs by XTT assay. Format: functional, cell-based. Conditions: A549, 24 h. (In general: Tetrazolium dyes change colour on reduction, which living cells bring about.)
For data set [5], the system named is A549. The data set can be described thus: Cytotoxicity against human A549 cells assessed as reduction in cell viability after 48 hrs by XTT assay. The format is functional, cell-based. Conditions: A549, 48 h.
For a further data set, the system named is PBMC. As to the kind of experiment: Cytotoxicity against human PBMC cells assessed as reduction in cell viability after 48 hrs by XTT assay. The format is cell-based.
A further data set relates to MRC5. As to the kind of experiment: Cytotoxicity against human MRC5 cells assessed as reduction in cell viability after 24 hrs by XTT assay. Format: cell-based. The following applies: MRC5, 24 h.
For data set [6], the system named is CAL-12T. As to the kind of experiment: Cytotoxicity against human CAL-12T cells assessed as reduction in cell viability after 48 hrs by XTT assay. The format is functional, cell-based.
Data set [7] deals with HCC827. As to the kind of experiment: Cytotoxicity against human HCC827 cells assessed as reduction in cell viability after 48 hrs by XTT assay. Format: functional, cell-based. The following applies: HCC827, 48 h.
In data set [8] the test system is MDA-MB-231. As to the kind of experiment: Cytotoxicity against human MDA-MB-231 cells assessed as reduction in cell viability after 24 hrs by XTT assay. Conditions: MDA-MB-231, 24 h. The format is functional, cell-based.
Data set [9] concerns MDA-MB-231. As to the kind of experiment: Cytotoxicity against human MDA-MB-231 cells assessed as reduction in cell viability after 48 hrs by XTT assay. Conditions: MDA-MB-231, 48 h. Format: functional, cell-based.
Data set [10] has as its system A549. The data set can be described thus: Cell cycle arrest in human A549 cells assessed as accumulation at G2/M phase after 24 hrs by propidium iodide staining based flow cytometry. The format is functional.
In data set [11] the test system is A549. The data set can be described thus: Cell cycle arrest in human A549 cells assessed as accumulation at G2/M phase at 50 nM after 24 hrs by propidium iodide staining based flow cytometry (reference value: 18%). Format: functional.
The subject of data set [12] is A549. As to the kind of experiment: Cell cycle arrest in human A549 cells assessed as accumulation at G2/M phase at 100 nM after 24 hrs by propidium iodide staining based flow cytometry (reference value: 18%). The format is functional.
The test system of data set [13] is A549. As to the kind of experiment: Cell cycle arrest in human A549 cells assessed as accumulation at G0/G1 phase at 50 nM after 24 hrs by propidium iodide staining based flow cytometry (reference value: 61%). The format is functional.
The test system of data set [14] is A549. The data set can be described thus: Cell cycle arrest in human A549 cells assessed as accumulation at G0/G1 phase at 100 nM after 24 hrs by propidium iodide staining based flow cytometry (reference value: 61%). The format is functional.
Data set [15] deals with CAL-12T. The data set can be described thus: Cell cycle arrest in human CAL-12T cells at 50 to 100 nM after 24 hrs by propidium iodide staining based flow cytometry. Format: functional.
The test system of data set [16] is HCC827. The data set can be described thus: Cell cycle arrest in human HCC827 cells at 50 to 100 nM after 24 hrs by propidium iodide staining based flow cytometry. The format is functional.
The target in data set [17] is T1, Cyclin-dependent kinase 1/cyclin B1 (Homo sapiens). The data set can be described thus: Activation of CDK1/cyclinB1 in human A549 cells at 100 nM after 24 hrs by western blot analysis. Format: cell-based. (In general: Immunoblotting shows a protein as a band on a membrane.)
For data set [18], the target named is Cyclin-dependent kinase 1 (Homo sapiens) (UniProt P06493). As to the kind of experiment: Activation of CDK1 in human A549 cells assessed as increase in CDK1 phosphorylation at Tyr15 residues at 100 nM after 24 hrs by western blot analysis. The format is cell-based.
The target of data set [19] is T1, Cyclin-dependent kinase 1/cyclin B1 (Homo sapiens). The data set can be described thus: Activation of CDK1/cyclinB1 in human A549 cells assessed as increase in cytokinesis defects at 100 nM after 24 hrs by DAPI staining based assay. Format: cell-based.
Data set [20] relates to A549. As to the kind of experiment: Induction of mitotic catastrophe in human A549 cells assessed as population of cells showing increase in size at 100 nM after 24 hrs by flow cytometry (reference value: 5.7%). The format is functional.
In data set [21] the test system is A549. The data set can be described thus: Induction of mitochondrial dysfunction in human A549 cells assessed as cell population with mitochondrial potential loss at 50 nM after 48 hrs by JC-1 staining based flow cytometry (reference value: 7%). Format: functional.
Data set [22] relates to A549. As to the kind of experiment: Induction of mitochondrial dysfunction in human A549 cells assessed as cell population with intact mitochondrial potential at 50 nM after 48 hrs by JC-1 staining based flow cytometry (reference value: 7%). Format: functional.
The test system of data set [23] is A549. The data set can be described thus: Induction of intracellular ROS production in human A549 cells at 50 nM after 48 hrs by H2DCFDA staining based flow cytometry relative to control. Format: functional.
The test system of data set [24] is A549. As to the kind of experiment: Induction of intracellular ROS production in human A549 cells at 100 nM after 48 hrs by H2DCFDA staining based flow cytometry relative to control. The format is functional.
The test system of data set [25] is A549. The data set can be described thus: Induction of mitochondrial dysfunction in human A549 cells assessed as decrease in ratio of red to green fluorescence intensity at 50 nM after 48 hrs by JC-1 staining based flow cytometry. The format is functional. Also noted: scale not given: the % may be the effect or the level left.
Data set [26] deals with A549. As to the kind of experiment: Induction of mitochondrial dysfunction in human A549 cells assessed as decrease in ratio of red to green fluorescence intensity at 100 nM after 48 hrs by JC-1 staining based flow cytometry. The format is functional. Also noted: scale not given: the % may be the effect or the level left.
The test system of data set [27] is A549. The data set can be described thus: Cytotoxicity against human A549 cells assessed as reduction in cell viability pretreated with ROS scavenger edaravone for 1 hr followed by compound addition measured after 24 hrs by XTT assay. Format: functional, cell-based.
Data set [28] relates to A549. As to the kind of experiment: Cytotoxicity against human A549 cells assessed as reduction in cell viability pretreated with ROS scavenger tempol for 1 hr followed by compound addition measured after 24 hrs by XTT assay. The format is functional, cell-based.
Data set [29] concerns A549. As to the kind of experiment: Cytotoxicity against human A549 cells assessed as reduction in cell viability pretreated with ROS scavenger ebselen for 1 hr followed by compound addition measured after 24 hrs by XTT assay. Format: functional, cell-based.
For data set [30], the system named is A549. As to the kind of experiment: Induction of apoptosis in human A549 cells assessed as activation of caspase 3/7 at 50 nM after 48 hrs using Z-DEVD-R110 as substrate by flow cytometry (reference value: 9%). Format: functional.
For data set [31], the system named is A549. As to the kind of experiment: Induction of apoptosis in human A549 cells assessed as activation of caspase 3/7 at 100 nM after 48 hrs using Z-DEVD-R110 as substrate by flow cytometry (reference value: 9%). Format: functional.
In data set [32] the test system is A549. As to the kind of experiment: Induction of apoptosis in human A549 cells assessed as activation of caspase 3/7 after 48 hrs by flow cytometry. Format: functional, cell-based.
For data set [33], the system named is A549. As to the kind of experiment: Induction of apoptosis in human A549 cells assessed as hypodiploid DNA content at 10 nM after 72 hrs by propidium iodide staining flow cytometry (reference value: 3 to 4%). Format: functional.
Data set [34] relates to A549. The data set can be described thus: Induction of apoptosis in human A549 cells assessed as hypodiploid DNA content at 50 nM after 72 hrs by propidium iodide staining flow cytometry (reference value: 3 to 4%). Format: functional.
The test system of data set [35] is A549. The data set can be described thus: Induction of apoptosis in human A549 cells assessed as hypodiploid DNA content at 100 nM after 72 hrs by propidium iodide staining flow cytometry (reference value: 3 to 4%). The format is functional.
Data set [36] deals with CAL-12T. The data set can be described thus: Induction of apoptosis in human CAL-12T cells assessed as increase in hypodiploid DNA content at 50 to 100 nM after 72 hrs by propidium iodide staining flow cytometry. The format is functional, cell-based.
Data set [37] deals with HCC827. The data set can be described thus: Induction of apoptosis in human HCC827 cells assessed as increase in hypodiploid DNA content at 50 to 100 nM after 72 hrs by propidium iodide staining flow cytometry. Format: functional, cell-based.

The IC50 is the midpoint of a concentration-inhibition curve.

T1 sequence (P06493 whole entry, looked up): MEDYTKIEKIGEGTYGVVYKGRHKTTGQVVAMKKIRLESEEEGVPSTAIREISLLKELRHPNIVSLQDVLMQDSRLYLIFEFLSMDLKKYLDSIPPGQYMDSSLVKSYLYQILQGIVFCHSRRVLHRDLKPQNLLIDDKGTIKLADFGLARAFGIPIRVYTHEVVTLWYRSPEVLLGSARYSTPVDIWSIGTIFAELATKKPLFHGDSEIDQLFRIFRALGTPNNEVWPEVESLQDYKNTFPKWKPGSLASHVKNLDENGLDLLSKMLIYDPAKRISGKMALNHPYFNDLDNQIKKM
T1 sequence (P14635 whole entry, looked up): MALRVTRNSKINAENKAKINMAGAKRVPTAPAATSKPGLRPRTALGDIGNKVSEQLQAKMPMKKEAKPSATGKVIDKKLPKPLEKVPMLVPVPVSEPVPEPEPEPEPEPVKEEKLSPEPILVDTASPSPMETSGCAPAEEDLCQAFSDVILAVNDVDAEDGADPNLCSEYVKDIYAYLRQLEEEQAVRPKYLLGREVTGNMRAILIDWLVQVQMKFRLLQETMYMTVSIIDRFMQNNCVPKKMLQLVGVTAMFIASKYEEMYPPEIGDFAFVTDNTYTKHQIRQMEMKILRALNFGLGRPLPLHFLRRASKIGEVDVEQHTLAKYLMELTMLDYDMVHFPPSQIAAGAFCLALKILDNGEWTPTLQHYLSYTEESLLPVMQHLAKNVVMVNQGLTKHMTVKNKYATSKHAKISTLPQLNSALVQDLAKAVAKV
Cyclin-dependent kinase 1 (Homo sapiens), sequence (P06493 whole entry, looked up): as the sequence (P06493 whole entry, looked up) above

On to `COc1cccc2c1C(=O)c1c(O)c3c(c(O)c1C2=O)C[C@@](O)(C(=O)CO)C[C@@H]3O[C@H]1C[C@H](N)[C@H](O)[C@H](C)O1` [DOXORUBICIN], for which the Activity in the data set on A549 [1] is reported as 8.2%; with A549 [2], 12.4%.

`CO[C@H]1[C@H](O)[C@H](O[C@@H]2C[C@H]3CC[C@@H]4[C@H](CC[C@]5(C)[C@@H](C6=CC(=O)OC6)CC[C@]45O)[C@@]3(C)[C@H](O)C2)O[C@@H](C)[C@@H]1O`: the outcome (in [3]; in the data set with CAL-12T [15]; in data set [17]; in data set [18]; with A549 [27]; in the data set with A549 [28]) was Active. Further, the result in the data set with A549 [29], with CAL-12T [36] and with HCC827 [37] was Active. For the same compound, the IC50 with A549 [4] is 95 nM; in the data set with A549 [5], 68 nM; in the data set with MRC5 it was greater than 1000 nM; in the data set on CAL-12T [6], 161 nM; with HCC827 [7], 701 nM; with MDA-MB-231 [8], 4200 nM. For the same compound, in the data set with MDA-MB-231 [9], the IC50 is 1500 nM. The Activity entry in the data set with PBMC was “Non-Toxic”; in the data set on A549 [10], “Dose-dependent effect”; in the data set on A549 [11], 29%; in the data set with A549 [12] it was 43%; with A549 [13], 50%; with A549 [14], 31%. Further, the Activity in data set [19] is 34.3%; in the data set on A549 [20], 29.8%; in the data set with A549 [1] it was 9%; with A549 [2] it was 13.9%; with A549 [21] it was 8.8%; with A549 [22] it was 9%. The Activity was 20% in the data set with A549 [25]; 40% with A549 [26]; 38% in the data set with A549 [30]; 65% in the data set on A549 [31]; “Dose-dependent effect” in the data set with A549 [32]; 3% in the data set on A549 [33]. For the same compound, the Activity with A549 [34] is given as 13 - 17%; in the data set on A549 [35] it was 51 - 55%. For the same compound, the outcome in the data set with HCC827 [16] was inactive. Further, the “fold change (FC)” value with A549 [23] was determined as 1.5; in the data set with A549 [24], 2.8.
